According to patent US4345938A, “Herbicidal 2-haloacetanilides” (Monsanto Company, priority 1980, dated 1982):
Like-named read-outs stand apart in the source and are kept apart here.

Tests used:
Type in all cases: in vivo
Cyperus serotinus = assay: Field transplant rice test, applied 9 DAT, CS; details: for inhibition at 375 g/ha / inhibition at 750 g/ha / inhibition at 1500 g/ha / inhibition at 3000 g/ha: Cyperus serotinus, 216 h, read-out: Percent Inhibition, CS; for inhibition at 375 g/ha: 0.375 Kg/Ha; for inhibition at 750 g/ha: 0.75 Kg/Ha; for inhibition at 1500 g/ha: 1.5 Kg/Ha; for inhibition at 3000 g/ha: 3.0 Kg/Ha
Text: (§1) In the discussion of data below, occasional reference is made to herbicide application rates symbolized as "GR15 " and "GR85 "; these rates are given in kilograms per hectare (kg/ha) which are convertible into pounds per acre (lbs/A) by dividing the kg/ha rate by 1.12.
(§2) A further guide to the effectiveness of a chemical as a selective herbicide is the "selectivity factor" ("SF") for a herbicide in given crops and weeds. The selectivity factor is a measure of the relative degree of crop safety and weed injury and is expressed in terms of the GR15 /GR85 ratio, i.e., the GR15 rate for the crop divided by the GR85 rate for the weed, both rates in kg/ha (lb/A.)
(§3) The test data in Table III for all compounds was obtained under identical test conditions. The weeds used in the tests herein have the following abbreviations in the tables: Echinochloa crus-galli (EC), Monochloria vaginalis (MV), Cyperus Serotinus (CS), Eleocharis Kuroguwai (EK) and Sagittaria trifolia (ST).
(§4) In further comparative tests, a preferred compound of this invention (Example 1) was tested in the field with prior art Compounds A-D. These tests were conducted under conditions reflecting herbicide application times generally favorable to all herbicides in the test. The timing of application of herbicides to transplant rice is very important, whether, as in some instances, prior to transplanting the rice; in other instances, at the time of transplanting or else after transplanting. Application times are conventionally referred to as "days before transplant" (DBT) or "days after transplant" ("DAT"). The field test data in Table IV was obtained from a test in which the herbicides were applied at the time of transplant, i.e., "0 DAT", with observations being made weekly up to six weeks after transplant ("WAT") beginning at two weeks after transplant; for illustrative and representative purposes, only the early, middle and late period observations, i.e., 2 WAT, 4 WAT and 6 WAT, are shown in Table IV. The data in Table IV is for rates of application common to all herbicides in the test, i.e., from 3.0 kg/ha (2.67 lb/A) down to 0.375 kg/ha (0.34 lb/A). All herbicides were applied at their actual or expected use rates, i.e., as granules containing 2.5% by weight herbicide for the compound of Example 1, Compounds B, C and D and 5.0% by weight for Compound A.
(§5) In Table V are presented field data showing the relative performance of the compound of Example 1 and Compounds A-D applied 9 DAT, with observations being made weekly from 3 WAT to 7 WAT; again, for illustrative and representative purposes, only the early, middle and late period observations are reported in Table V, the herbicide rates and concentrations of active ingredients the same as is shown in Table IV.

Upland seeded rice = Upland seeded rice greenhouse test, rice safety
Procedure: (§6) In another comparative test in the greenhouse, the compound of Example 2 and Compound B were tested in Upland seeded rice. […] In contrast, Compound A, (a commercial rice herbicide), required 0.14 kg/ha (0.125 lb/A) to selectively control the same weed with rice safety also maintained at 1.12 kg/ha resulting in a selectivity factor of at least 8, i.e., less than one-half that of the compound of Example 2.

Echinochloa crus-galli [1] = assay: Field transplant rice test, applied 9 DAT, EC; details: for inhibition at 375 g/ha / inhibition at 750 g/ha / inhibition at 1500 g/ha / inhibition at 3000 g/ha: Echinochloa crus-galli, 216 h, read-out: Percent Inhibition, EC; for inhibition at 375 g/ha: 0.375 Kg/Ha; for inhibition at 750 g/ha: 0.75 Kg/Ha; for inhibition at 1500 g/ha: 1.5 Kg/Ha; for inhibition at 3000 g/ha: 3.0 Kg/Ha
Text: as §1, §2, §3, §4, §5

Echinochloa crus-galli [2] = assay: Upland seeded rice greenhouse test, barnyardgrass; details: for rate for selective control of Echinochloa crus-galli / selectivity factor, Echinochloa crus-galli in Upland seeded rice: Upland seeded rice, greenhouse
Procedure: as §6

Lambsquarters = assay: Pre-emergent herbicidal test, Lambsquarters; also: ranges in brackets are in %
Text: (§7) A good grade of top soil is placed in aluminum pans and compacted to a depth of three-eights to one-half inch from the top of the pan. On the top of the soil is placed a number of seeds or vegetative propagules of various plant species. The soil required to level fill the pans after seeding or adding vegetative propagules is weighted into a pan. The soil and a known amount of the active ingredient applied in a solvent or as a wettable powder suspension are thoroughly mixed, and used to cover the prepared pans. After treatment, the pans are moved into a greenhouse bench where they are watered by subirrigation as needed to give adequate moisture for germination and growth.
(§8) Approximately 2 weeks after seeding and treating, the plants were observed and the results recorded. The herbicidal rating was obtained by means of a fixed scale based on the percent injury of each plant species. The ratings are defined as follows: […]

Quackgrass = assay: Pre-emergent herbicidal test, Quackgrass; details: Table I; also: ranges in brackets are in %
Text: as §7, §8

Smartweed = assay: Pre-emergent herbicidal test, Smartweed; also: ranges in brackets are in %
Text: as §7, §8

Wheat = assay: Pre-emergent herbicidal test, Wheat; details: Table II; also: ranges in brackets are in %
Text: as §7, §8
(§9) The compounds were further tested by utilizing the above procedure on the following plant species: […]

Morningglory = assay: Pre-emergent herbicidal test, Morningglory; also: ranges in brackets are in %
Text: as §7, §8

Panicum Spp. = assay: Pre-emergent herbicidal test, Panicum Spp.; also: ranges in brackets are in %; details: Table II
Text: as §7, §8, §9

CCCCOCN(C(=O)CCl)c1c(CC)cccc1CC [Compound A, 2',6'-diethyl-N-(n-butoxymethyl)-2-chloroacetanilide]
inhibition at 375 g/ha (Cyperus serotinus; 3 WAT): 80%
inhibition at 375 g/ha (Cyperus serotinus; 5 WAT): 33%
inhibition at 375 g/ha (Cyperus serotinus; 7 WAT): 67%
inhibition at 750 g/ha (Cyperus serotinus; 3 WAT): 70%
inhibition at 750 g/ha (Cyperus serotinus; 5 WAT): 50%
inhibition at 750 g/ha (Cyperus serotinus; 7 WAT): 38%
inhibition at 1500 g/ha (Cyperus serotinus; 3 WAT): 100%
inhibition at 1500 g/ha (Cyperus serotinus; 5 WAT): 100%
inhibition at 1500 g/ha (Cyperus serotinus; 7 WAT): 100%
inhibition at 3000 g/ha (Cyperus serotinus; 3 WAT): 88%
inhibition at 3000 g/ha (Cyperus serotinus; 5 WAT): 100%
inhibition at 3000 g/ha (Cyperus serotinus; 7 WAT): 100%
selectivity factor (GR15/GR85), CS in transplant rice (Cyperus serotinus; between 3 WAT and 7 WAT): 2
rate at which rice safety is maintained (Upland seeded rice; Upland seeded rice, greenhouse, maximum test rate): ≥ 1.12 kg/ha
inhibition at 375 g/ha (Echinochloa crus-galli [1]; 3 WAT): 23%
inhibition at 375 g/ha (Echinochloa crus-galli [1]; 5 WAT): 20%
inhibition at 375 g/ha (Echinochloa crus-galli [1]; 7 WAT): 17%
inhibition at 750 g/ha (Echinochloa crus-galli [1]; 3 WAT): 80%
inhibition at 750 g/ha (Echinochloa crus-galli [1]; 5 WAT): 75%
inhibition at 750 g/ha (Echinochloa crus-galli [1]; 7 WAT): 70%
inhibition at 1500 g/ha (Echinochloa crus-galli [1]; 3 WAT): 88%
inhibition at 1500 g/ha (Echinochloa crus-galli [1]; 5 WAT): 90%
inhibition at 1500 g/ha (Echinochloa crus-galli [1]; 7 WAT): 85%
inhibition at 3000 g/ha (Echinochloa crus-galli [1]; 3 WAT): 93%
inhibition at 3000 g/ha (Echinochloa crus-galli [1]; 5 WAT): 93%
inhibition at 3000 g/ha (Echinochloa crus-galli [1]; 7 WAT): 90%
selectivity factor (GR15/GR85), EC in transplant rice (Echinochloa crus-galli [1]; between 3 WAT and 7 WAT): 2
rate for selective control of Echinochloa crus-galli (Echinochloa crus-galli [2]): 0.14 kg/ha
selectivity factor, Echinochloa crus-galli in Upland seeded rice (Echinochloa crus-galli [2]): at least 8

CCCCOc1cccc(CC)c1N(CC)C(=O)CCl [Example 2, N-ethyl-2'-n-butoxy-6'-ethyl-2-chloroacetanilide]
Rating, Lambsquarters (Lambsquarters; Table I, 5.6 kg/h): 3 (75-100)
Rating, Lambsquarters (Lambsquarters; Table I, 11.2 kg/h): 3 (75-100)
Rating, Lambsquarters (Lambsquarters; Table II, 0.01 kg/h): 0 (0-24)
Rating, Lambsquarters (Lambsquarters; Table II, 0.06 kg/h): 0 (0-24)
Rating, Lambsquarters (Lambsquarters; Table II, 0.28 kg/h): 0 (0-24)
Rating, Lambsquarters (Lambsquarters; Table II, 1.12 kg/h): 2 (50-74)
Rating, Lambsquarters (Lambsquarters; Table II, 5.6 kg/h): 3 (75-100)
Rating, Quackgrass (Quackgrass; 5.6 kg/h): 3 (75-100)
Rating, Quackgrass (Quackgrass; 11.2 kg/h): 3 (75-100)
Rating, Smartweed (Smartweed; Table I, 5.6 kg/h): 3 (75-100)
Rating, Smartweed (Smartweed; Table I, 11.2 kg/h): 3 (75-100)
Rating, Smartweed (Smartweed; Table II, 0.01 kg/h): 0 (0-24)
Rating, Smartweed (Smartweed; Table II, 0.06 kg/h): 0 (0-24)
Rating, Smartweed (Smartweed; Table II, 0.28 kg/h): 0 (0-24)
Rating, Smartweed (Smartweed; Table II, 1.12 kg/h): 2 (50-74)
Rating, Smartweed (Smartweed; Table II, 5.6 kg/h): 3 (75-100)
Rating, Wheat (Wheat; 0.01 kg/h): 0 (0-24)
Rating, Wheat (Wheat; 0.06 kg/h): 0 (0-24)
Rating, Wheat (Wheat; 0.28 kg/h): 1 (25-49)
Rating, Wheat (Wheat; 1.12 kg/h): 2 (50-74)
Rating, Wheat (Wheat; 5.6 kg/h): 3 (75-100)
rate at which rice safety is maintained (Upland seeded rice; in vivo): ≥ 1.12 kg/ha
Rating, Morningglory (Morningglory; Table I, 5.6 kg/h): 0 (0-24)
Rating, Morningglory (Morningglory; Table I, 11.2 kg/h): 2 (50-74)
Rating, Morningglory (Morningglory; Table II, 0.01 kg/h): 0 (0-24)
Rating, Morningglory (Morningglory; Table II, 0.06 kg/h): 0 (0-24)
Rating, Morningglory (Morningglory; Table II, 0.28 kg/h): 0 (0-24)
Rating, Morningglory (Morningglory; Table II, 1.12 kg/h): 0 (0-24)
Rating, Morningglory (Morningglory; Table II, 5.6 kg/h): 1 (25-49)
Rating, Panicum Spp. (Panicum Spp.; 0.01 kg/h): 0 (0-24)
Rating, Panicum Spp. (Panicum Spp.; 0.06 kg/h): 1 (25-49)
Rating, Panicum Spp. (Panicum Spp.; 0.28 kg/h): 3 (75-100)
Rating, Panicum Spp. (Panicum Spp.; 1.12 kg/h): 3 (75-100)
Rating, Panicum Spp. (Panicum Spp.; 5.6 kg/h): 3 (75-100)
rate for selective control of Echinochloa crus-galli (Echinochloa crus-galli [2]): 0.064 kg/ha
selectivity factor, Echinochloa crus-galli in Upland seeded rice (Echinochloa crus-galli [2]): at least 17.5
control of barnyardgrass (Echinochloa crus-galli [2]; upland-seeded rice test, 0.0087 kg/ha (0.0078 lb/A)): 20%
